# Measured values from publication PMC12311387, “Proactive Therapeutic Drug MONiToring to Guide Suppressive Antibiotic Therapy with DALBAvaNcin ( > 12 weeks) in Osteoarticular Infections (MONTALBANO)” (Journal of Bone and Joint Infection, 2025).
# Experiments:
# [1] = 12 PJI patients, 1500 mg day 1, 8, 14 then 1000 mg biweekly from day 28; all Cmin values well above target; ref Söderquist et al., 2024; cited from earlier work
# Experimental: Currently, there is considerable heterogeneity in the use of SAT with dalbavancin for OAIs in both the initial and the maintenance doses. For the latter, some proposed regimens range from 500 mg weekly to 500 mg biweekly to 1000 mg biweekly (Martín et al., 2019; Morata et al., 2019; Wunsch et al., 2019). However, none of these studies employed TDM to assess the pharmacological efficacy of such regimens. Söderquist et al. (2024) recently shared their experience with 12 patients treated with long-term ( >12 weeks) dalbavancin for PJI, according to the Swedish national guidelines and introducing ...
# [2] = Safety: monitoring of adverse events, renal toxicity and platelet count; format: in vivo, human; details: patients n=33, treatment >12 weeks
# Experimental: Safety was assessed by monitoring AEs. We defined renal toxicity as a reduction in the estimated glomerular filtration rate (eGFR) to less than 30 mL min^−1/1.73 m^2, accompanied by a decrease of at least 20 % from baseline. A significant reduction in platelet count was considered when the count fell below 100 000 per mm^−3 with a decrease of at least 25 % from baseline.
# Isolated pathogens = test: MIC of pathogens isolated from the patients; format: cell-based; details: calculated for one patient only
# Description: Table 1 Baseline characteristics of the study population.
# [3] = Therapeutic drug monitoring of plasma dalbavancin Cmin (LC-MS/MS) from the fourth dose onward; format: in vivo, human
# Experimental: Included patients received the first three dalbavancin doses on day 1 (T0), day 8 (T1), and day 43 (T2) (Senneville et al., 2023). Subsequent injection timings were personalized and determined using dalbavancin Cmin measured immediately before the dalbavancin administration and maximum plasma concentrations ( Cmax ) measured 30 min after the end of the injection (Fig. 1). Starting from the third dose, Cmin and Cmax values were used in log-linear regression models by plotting logarithmic dalbavancin concentrations with time (Microsoft Excel Software, Microsoft Company, USA) (Cattaneo et al., 2023) to plan the subsequent administration aiming to maintain Cmin levels at ≥8 mg L^−1, as recommended in the recent literature (Cojutti et al., 2021).
# Plasma dalbavancin blood samples were assessed using ethylene–diamine–tetraacetic acid (EDTA)-containing Vacutainers®. All samples were centrifuged at 3000 × g and plasma was separated and stored at -20 °C. Dalbavancin quantification was performed through a validated liquid chromatography tandem mass spectrometry method developed and validated according to the EMA guidelines. The analytical process consisted of a fast protein precipitation protocol of 50 µ L of plasma with 400 µ L of precipitation solution (methanol / acetonitrile, 3 / 1), centrifugation at 10 000 × g , 1 : 3 dilutions with water, and analysis. Chromatographic separation was achieved using a gradient (acetonitrile and water with formic acid 0.1 %) on a reversed-phase analytical column (Acquity UPLC BEH C18 1.70 µ m 2.1 × 50 mm; Waters, Milan, Italy). For quantification, analysis was performed in ESI-positive mode by monitoring the transition m/z = 909.45 > 340.2 for dalbavancin. The method was linear from 1 to 500 mg L^−1, with intraday and interday assay imprecision and inaccuracy consistently < 10 % during each analytical run.
# The primary outcome was to evaluate the pharmacological efficacy of our proactive TDM-based administration method in maintaining the dalbavancin Cmin level at ≥8 mg L^−1 or ≥4 mg L^−1 taken from the fourth dose onward.
# Pharmacological efficacy was defined as the number of instances where Cmin≥8 mg L^−1(or ≥4 mg L^−1) was achieved from the fourth dose onward. […] A tolerance window of up to ±4 d from the calculated injection date was allowed to adapt the model to real-life conditions and improve adherence to the treatment regimen.
# [4] = cited from earlier work
# [5] = test system: osteoarticular infections (OAIs); test: Clinical effectiveness from chart review in patients with osteoarticular infections; format: in vivo, human
# Experimental: We established effectiveness with an assessment of clinical and microbiological outcomes from chart review detected up to 31 October 2024. If the patient was still on dalbavancin treatment, the clinical outcome was assessed as “ongoing treatment”. Otherwise, the assessment could result in the following: (i) completed therapy with clinical success (absence of failure or relapse at the follow-up); (ii) failure (clinical or microbiological failure with uncontrolled infection during dalbavancin treatment; need for medical interventions for the treated episode in addition to the initial program); (iii) relapse (exacerbation of the clinical condition within 6 months after the end of treatment); (iv) discontinuation of therapy due to AEs; (v) discontinuation of therapy due to new hospitalization for other clinical events; (vi) missing data (insufficient details to assess the outcome; lost at follow-up); (vii) death for infection-related conditions; or (viii) death for non-infection-related conditions.
# [6] = only determinations within ±4 d of the date suggested by the model, plasma
# [7] = plasma trough determinations from fourth dose onward, 33 OAI patients, TDM-guided dosing, total concentration
compound,measurement,setting,value
CN[C@H]1C(=O)N[C@@H]2Cc3ccc(cc3)Oc3cc4cc(c3O[C@@H]3O[C@H](C(=O)O)[C@@H](O)[C@H](O)[C@H]3NC(=O)CCCCCCCCC(C)C)Oc3ccc(cc3Cl)[C@@H](O)[C@@H]3NC(=O)[C@H](NC(=O)[C@@H]4NC(=O)[C@@H](NC2=O)c2cc(cc(O)c2Cl)Oc2cc1ccc2O)c1ccc(O)c(c1)-c1c(O[C@H]2O[C@H](CO)[C@@H](O)[C@H](O)[C@@H]2O)cc(O)cc1[C@@H](C(=O)NCCCN(C)C)NC3=O [dalbavancin],Cmin,[1],> 8000 ng/mL
same,"AEs, n (%)",[2],0 n (%)
same,Adverse effects on renal function or platelet count,[2],did not observe any adverse effects on renal function or platelet count
same,MIC for dalbavancin,Isolated pathogens,< 0.06 µg/mL
same,"Cmin ≥4 mg L^−1, n (%), Cmin performed at correct timing (n=95)",[3]; [6],93 (97.9) n (%)
same,"Cmin ≥8 mg L^−1, n (%), Cmin performed at correct timing (n=95)",[3]; [6],81 (85.3) n (%)
same,"Cmin ≥4 mg L^−1, n (%), Total Cmin (n=118)",[3]; [7],114 (96.6) n (%)
same,"Cmin ≥8 mg L^−1, n (%), Total Cmin (n=118)",[3]; [7],93 (78.8) n (%)
same,penetration proportion into bone tissue,"[4]; ref Dunne et al., 2015",13.1%
same,half-life,"[4]; ref Rappo et al., 2019a",14.4 days
same,total binding protein,"[4]; ref Rappo et al., 2019a",93%
same,"Completed therapy with clinical success, n (%)",[5]; patients n=33,11 (33.3) n (%)
same,"Failure, n (%)",[5]; patients n=33,1 (3) n (%)
same,"Ongoing, n (%)","[5]; patients n=33, still on treatment with controlled infection at end of study",18 (54.5) n (%)
same,"Relapse, n (%)","[5]; patients n=33, within 6 months after end of treatment",3 (9.1) n (%)
